In US20260250318A1, “COMPOSITIONS AND METHODS FOR CROSSING THE BLOOD BRAIN BARRIER” (VOYAGER THERAPEUTICS, INC., priority 2022, published 2026):

Key:
Details in all cases: synthetic library passage 3, intravenous, relative to wild-type AAV9
[1] = system: brain; assay: NGS fold enrichment of synthetic library (passage 3) in BALB/c mice, first cross-species screen; type: in vivo
Summary of the method: (§1)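 Passage-3 synthetic capsid library given intravenously […] to NHPs (2-4 years) and BALB/c or C57Bl/6 mice (n=3, 6-8 weeks). After e.g. 28 days, tissue RNA was RT-PCR amplified and NGS-sequenced; values are fold enrichment of each variant relative to wild-type AAV9.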

[2] = system: brain; assay: NGS fold enrichment of synthetic library (passage 3) in C57Bl/6 mice, first cross-species screen; type: in vivo
Summary of the method: as §1

[3] = system: brain, spinal cord, and DRG of the NHPs; assay: NGS fold enrichment of synthetic library (passage 3) in NHPs, first cross-species screen; type: in vivo, cynomolgus macaques (Macaca fascicularis)
Summary of the method: as §1

[4] = RNA from brain of BALB/c mice, NGS
[5] = RNA from brain of C57Bl/6 mice, NGS
[6] = RNA from spinal cord of NHPs, NGS

Row | Sequence | Fold enrichment over AAV9 in the brain of Mice (BALB/c) ([1]; RNA NGS, brain of BALB/c mice) [fold] | Fold enrichment over AAV9 in the brain of Mice (C57Bl/6) ([2]; RNA NGS, brain of C57Bl/6 mice) [fold] | Fold enrichment over AAV9 in the brain of NHPs ([3]; RNA NGS, brain of NHPs) [fold] | Fold enrichment over AAV9 in the spinal cord of NHPs ([3]; RNA NGS, spinal cord of NHPs) [fold] | Fold enrichment over AAV9 in the brain of Mice (BALB/c) [1, 4] [fold] | Fold enrichment over AAV9 in the brain of Mice (C57Bl/6) [2, 5] [fold] | Fold enrichment over AAV9 in the brain of NHPs ([3]; RNA from brain of NHPs, NGS) [fold] | Fold enrichment over AAV9 in the spinal cord of NHPs [3, 6] [fold]
1 | GSGQSYTMTQNQQT | 0.231 | 0.297 | 2.136 | 6.755 | – | – | – | –
2 | GSGHSVSGPQNQQT | 0.619 | 1.370 | 1.993 | 6.259 | – | – | – | –
3 | GSDHSHRGGQNQQT | – | – | – | – | 0.331 | 0.818 | 1.174 | 0.504
4 | GNGFSSASGQNQQT | 0.182 | 0.240 | 2.493 | 0.772 | – | – | – | –
5 | GSGQHLPLLGNQQT | – | – | – | – | 0.347 | 0.519 | 1.175 | 1.739
6 | GSGHGQVLSQNQQT | 0.661 | 1.880 | 2.213 | 12.133 | – | – | – | –
7 | GGLSHVMSGQNQQT | 0.378 | 0.885 | 1.875 | 0.403 | – | – | – | –
8 | GRGQNQQHTGLATT | 0.691 | 1.134 | 1.650 | 6.174 | – | – | – | –
9 | GSGQNQQTLRGSLE | – | – | – | – | 0.354 | 0.853 | 1.179 | 1.812
10 | GSSHTQALGQNQQT | 0.874 | 0.882 | 1.784 | 0.143 | – | – | – | –
11 | GMYEYSQSGQNQQT | 0.448 | 1.410 | 1.438 | 0.000 | – | – | – | –
12 | GSGQNQQSGRGDLT | 1.152 | 0.524 | 2.019 | 6.919 | – | – | – | –
13 | GSGQSHRSELNQQT | 0.256 | 0.668 | 1.585 | 11.974 | – | – | – | –
14 | GKPAGGLSGQNQQT | 0.739 | 0.708 | 1.085 | 2.805 | – | – | – | –
15 | GSGQNQQHSSSHLT | 0.859 | 1.091 | 1.581 | 2.782 | – | – | – | –
16 | GSGHMSDLRQNQQT | 0.328 | 0.555 | 1.073 | 4.291 | – | – | – | –
17 | GSPGVSPSGQNQQT | – | – | – | – | 1.160 | 0.853 | 1.178 | 3.006
